Test results as given in US4397868A, “Method of treating atherosclerosis with trisubstituted ureas” (American Cyanamid Company, priority 1982, dated 1983).

Tested on: fatty acyl CoA:cholesterol acyl transferase (ACAT)
Assay: In vitro inhibition of fatty acyl CoA:cholesterol acyl transferase (ACAT), rat adrenal microsomal supernatant
Assay type: biochemical
Conditions: test compound final concentration 5.2 μg./ml., 14C-oleoyl CoA, 37° C., 10 minutes
Description: A representative compound of the present invention was assayed for a biological activity related to potential use as an antiatherosclerotic agent. The compound was tested in vitro for its ability to inhibit the enzyme fatty acyl CoA:cholesterol acyl transferase (ACAT).
A representative compound was tested for its ability to inhibit ACAT according to the following procedure:
Rat adrenals were homogenized in 0.2 M monobasic potassium phosphate buffer, pH 7.4, and centrifuged at 1000 times gravity for 15 minutes at 5° C. The supernatant, containing the microsomal fraction, served as the source of the cholesterol-esterifying enzyme, fatty acyl CoA:cholesterol acyl transferase (ACAT). A mixture comprising 50 parts of adrenal supernatant, 10 parts of albumin (BSA) (50 mg./ml.), 3 parts of test compound (final concentration 5.2 μg./ml.) and 500 parts of buffer was preincubated at 37° C. for 10 minutes. After treatment with 20 parts of oleoyl CoA (^14 C-0.4 μCi) the mixture was incubated at 37° C. for 10 minutes. A control mixture, omitting the test compound, was prepared and treated in the same manner. The lipids from the incubation mixture were extracted into an organic solvent and separated by thin-layer chromatography. The cholesterol ester fraction was counted in a scintillation counter. […]

inhibited ACAT: 82%
Compound: CCCCN(Cc1ccccc1)C(=O)Nc1ccccc1 [Example 1, 1-Benzyl-1-(n-butyl)-3-(phenyl)urea]
